Where two headings read alike, the source gives them in different places.
Legend:
[1] = Lipophilicity (log P)
[2] = tested on: epileptic activity; set-up: method as in PMID 25319542; conditions: cited from earlier work
[3] = literature value; cited from earlier work
[4] = tested on: Kv7.2/Kv7.3 channel; conditions: TEA blockade of heteromeric Kv7.2/Kv7.3; cited from earlier work
[5] = tested on: Kv7.2; conditions: TEA blockade of Kv7.2; cited from earlier work
[6] = biological target: Kv7.2/Kv7.3 currents (Homo sapiens, UniProt O43525+O43526); conditions: 3 mM TEA
Sequence of Kv7.2/Kv7.3 currents (O43526 whole entry): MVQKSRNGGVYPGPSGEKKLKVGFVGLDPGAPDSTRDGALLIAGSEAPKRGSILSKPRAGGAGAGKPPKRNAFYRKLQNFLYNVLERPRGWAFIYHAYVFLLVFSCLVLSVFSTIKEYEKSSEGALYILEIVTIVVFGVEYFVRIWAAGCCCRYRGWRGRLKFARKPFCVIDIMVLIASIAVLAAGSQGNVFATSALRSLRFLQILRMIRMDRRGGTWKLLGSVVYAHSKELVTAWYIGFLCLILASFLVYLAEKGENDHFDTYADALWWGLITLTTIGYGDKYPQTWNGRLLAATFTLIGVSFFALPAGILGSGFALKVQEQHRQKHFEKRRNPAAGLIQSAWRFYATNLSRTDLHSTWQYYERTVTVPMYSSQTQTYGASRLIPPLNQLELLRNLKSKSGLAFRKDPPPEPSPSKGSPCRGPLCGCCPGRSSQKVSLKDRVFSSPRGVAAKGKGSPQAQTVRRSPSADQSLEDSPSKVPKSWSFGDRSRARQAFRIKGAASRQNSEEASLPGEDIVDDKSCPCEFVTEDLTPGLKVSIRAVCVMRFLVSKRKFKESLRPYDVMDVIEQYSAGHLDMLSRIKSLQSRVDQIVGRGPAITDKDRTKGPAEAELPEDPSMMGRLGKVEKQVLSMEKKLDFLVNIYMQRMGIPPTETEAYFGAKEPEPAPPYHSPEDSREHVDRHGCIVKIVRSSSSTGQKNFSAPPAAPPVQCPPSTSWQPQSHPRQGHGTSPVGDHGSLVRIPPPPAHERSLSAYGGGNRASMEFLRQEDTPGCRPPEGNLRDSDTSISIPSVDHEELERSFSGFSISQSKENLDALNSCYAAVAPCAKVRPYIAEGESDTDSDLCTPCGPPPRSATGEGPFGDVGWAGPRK
Sequence of Kv7.2/Kv7.3 currents (O43525 whole entry): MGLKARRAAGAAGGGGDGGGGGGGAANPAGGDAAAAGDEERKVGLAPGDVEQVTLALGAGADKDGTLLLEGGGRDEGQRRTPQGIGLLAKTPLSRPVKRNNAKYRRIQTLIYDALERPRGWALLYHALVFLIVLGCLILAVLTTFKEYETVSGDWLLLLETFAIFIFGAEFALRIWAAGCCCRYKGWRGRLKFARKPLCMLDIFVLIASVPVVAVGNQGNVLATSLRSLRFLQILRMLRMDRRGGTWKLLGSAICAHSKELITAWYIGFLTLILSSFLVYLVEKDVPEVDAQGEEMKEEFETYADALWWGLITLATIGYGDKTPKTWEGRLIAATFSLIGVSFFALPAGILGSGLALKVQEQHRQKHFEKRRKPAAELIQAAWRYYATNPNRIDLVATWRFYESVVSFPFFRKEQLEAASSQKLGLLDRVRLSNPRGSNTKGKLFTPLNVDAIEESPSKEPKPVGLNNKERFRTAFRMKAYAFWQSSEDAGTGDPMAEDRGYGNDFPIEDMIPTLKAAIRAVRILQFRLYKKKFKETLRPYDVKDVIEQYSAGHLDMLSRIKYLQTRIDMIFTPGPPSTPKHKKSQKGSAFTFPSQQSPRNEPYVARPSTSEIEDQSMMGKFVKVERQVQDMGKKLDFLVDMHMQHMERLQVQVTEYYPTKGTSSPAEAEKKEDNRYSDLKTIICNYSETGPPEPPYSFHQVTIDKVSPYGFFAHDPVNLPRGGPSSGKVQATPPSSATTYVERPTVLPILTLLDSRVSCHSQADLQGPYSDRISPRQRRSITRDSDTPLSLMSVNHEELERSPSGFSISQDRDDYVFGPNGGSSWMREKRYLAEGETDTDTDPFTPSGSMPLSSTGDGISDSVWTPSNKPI
Protocol: To ensure that both Kv7.2 and Kv7.3 subunits were expressed into the selected clone and formed heteromeric channels, pharmacological experiments with the Kv7 channel blocker tetraethylammonium (TEA) were performed.[64] […] The effect of TEA blockade on Kv7.2/Kv7.3 currents on the selected clone was compared to that of the blockade exerted on the control group, represented by CHO cells transiently transfected with Kv7.2/Kv7.3 channels. The effect of the TEA blockade was investigated using a ramp protocol in which Kv7.2/Kv7.3 currents were activated by 3 s voltage ramps from −80 to +20 mV.

SMILES: C#CCN(Cc1ccc(F)cc1)c1ccc(NC(=O)OCC)c(N)c1 [P-RET, N-propargyl retigabine]
- logP [1]: 3.48
- In vivo potency higher than retigabine (suppression of epileptic activity) [2]: 2.5 times
- Increase in brain/plasma ratio compared to retigabine [3]: 14 fold

SMILES: CC[N+](CC)(CC)CC [TEA, tetraethylammonium]
- IC50 [4]: 3 mM
- IC50 [5]: 0.3 mM
- Current inhibition ([6]; CHO cells transiently transfected with Kv7.2/Kv7.3 (control group)): about 55%
- Current inhibition ([6]; selected stable clone (clone 5)): about 35%
